Results as given in ChEMBL document CHEMBL1138347, “Multi-target-directed drug design strategy: from a dual binding site acetylcholinesterase inhibitor to a trifunctional compound against Alzheimer's disease” (J Med Chem, 2007).

How the values were obtained:
[1] = target: Cholinesterase (Homo sapiens, UniProt P06276)
Description: Inhibition of human serum recombinant BChE by Ellman's method

[2] = target: Acetylcholinesterase (Homo sapiens, UniProt P22303)
Description: Inhibition of human serum recombinant AChE by Ellman's method

[3] = Inhibition of human AChE-induced amyloid-beta (1-40) aggregation by thioflavin T fluorescene method

Sequence of Cholinesterase (P06276 whole entry): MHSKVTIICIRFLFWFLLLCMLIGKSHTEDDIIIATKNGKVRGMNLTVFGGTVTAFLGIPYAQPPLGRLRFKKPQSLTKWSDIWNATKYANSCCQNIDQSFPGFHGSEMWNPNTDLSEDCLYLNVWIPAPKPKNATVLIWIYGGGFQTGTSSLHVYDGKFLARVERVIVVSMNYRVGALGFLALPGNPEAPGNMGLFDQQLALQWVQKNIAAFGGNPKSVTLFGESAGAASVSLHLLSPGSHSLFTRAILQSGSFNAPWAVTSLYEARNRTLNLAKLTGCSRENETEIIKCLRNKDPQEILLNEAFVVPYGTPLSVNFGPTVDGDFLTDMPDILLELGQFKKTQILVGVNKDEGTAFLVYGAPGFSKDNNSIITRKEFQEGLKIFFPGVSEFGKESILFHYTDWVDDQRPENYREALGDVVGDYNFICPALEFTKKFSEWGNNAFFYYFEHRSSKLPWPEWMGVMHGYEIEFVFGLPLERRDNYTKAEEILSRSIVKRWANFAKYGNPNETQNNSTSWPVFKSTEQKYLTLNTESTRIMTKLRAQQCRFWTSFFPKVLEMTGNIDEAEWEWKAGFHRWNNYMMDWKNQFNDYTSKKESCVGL
Sequence of Acetylcholinesterase (P22303 whole entry): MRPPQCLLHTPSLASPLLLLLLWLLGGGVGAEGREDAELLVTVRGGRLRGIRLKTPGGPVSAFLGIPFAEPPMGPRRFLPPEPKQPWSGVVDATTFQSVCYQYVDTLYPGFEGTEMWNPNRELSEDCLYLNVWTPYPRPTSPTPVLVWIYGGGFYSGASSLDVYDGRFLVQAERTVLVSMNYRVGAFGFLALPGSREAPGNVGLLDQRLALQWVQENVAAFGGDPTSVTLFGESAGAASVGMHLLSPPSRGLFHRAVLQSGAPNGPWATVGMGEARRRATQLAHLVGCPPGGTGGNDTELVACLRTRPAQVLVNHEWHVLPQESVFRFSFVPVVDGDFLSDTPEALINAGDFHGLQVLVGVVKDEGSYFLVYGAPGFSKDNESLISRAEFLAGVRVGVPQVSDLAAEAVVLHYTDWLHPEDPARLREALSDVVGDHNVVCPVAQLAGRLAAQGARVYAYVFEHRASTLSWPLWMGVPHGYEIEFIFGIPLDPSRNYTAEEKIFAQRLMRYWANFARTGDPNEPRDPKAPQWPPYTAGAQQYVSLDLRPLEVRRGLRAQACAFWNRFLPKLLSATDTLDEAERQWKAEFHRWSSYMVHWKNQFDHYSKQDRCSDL

Row | Structure (SMILES) | IC50 [1] | IC50 [2] | IC50 [3]
1 | O=C(CCCNc1c2c(nc3ccccc13)CCCC2)CCCNc1c2c(nc3ccccc13)CCCC2 | 11.3 nM |  | 
2 | c1ccc2c(NCCOCCOCCNc3c4c(nc5ccccc35)CCCC4)c3c(nc2c1)CCCC3 | 35.1 nM | 19.7 nM | 
3 | c1ccc2c(NCCCCCCCNc3c4c(nc5ccccc35)CCCC4)c3c(nc2c1)CCCC3 | 5.66 nM |  | 41700 nM
4 | O=C(NCCNc1c2c(nc3ccccc13)CCCC2)C(=O)NCCNc1c2c(nc3ccccc13)CCCC2 | 5.44 nM | 6.65 nM | 
